Activity calls are given as the source filed them. The calls are words filed in the database; no cut-off is given here.
Assays:
PBMC [1] = test: Inhibition of colony formation in human PBMC derived from TKI naive CML patients assessed as reduction in number of colonies at 1 uM incubated for 14 days in presence of imatinib by inverted microscopic analysis; type: functional, cell-based; details: time 14.0 day
MCF7 [2] = test: Inhibition of side population phenotype in human MCF7 cells expressing ABCG2 at 10 uM incubated for 90 mins by DCV staining based flow cytometric analysis; type: functional, cell-based
K-562R [3] = test: Effect on ABCB1 protein expression in human K562-r cells at 4 uM incubated for 72 hrs by Western blotting based immunoassay; type: functional, cell-based
PBMC [4] = test: Effect on colony formation in human PBMC derived from healthy donors at 10 uM measured after 2 weeks by inverted microscopic analysis; type: functional, cell-based
K562-r [5] = test: Inhibition of STAT5 phosphorylation in human K562-r cells at 4 uM measured after 6 hrs in presence of imatinib by Western blotting based immunoassay; type: cell-based
[6] = test system: Paclitaxel-resistant IGROV-1 cell; test: Inhibition of STAT5 phosphorylation in human Paclitaxel-resistant IGROV-1 cells expressing ABCB1 at 10 uM incubated for 72 hrs by Western blotting based immunoassay
A549 [7] = test: Inhibition of side population phenotype in human A549 cells expressing ABCC1 at 10 uM incubated for 90 mins by DCV staining based flow cytometric analysis; type: functional, cell-based
K-562R [8] = test: Restoration of imatinib accumulation in human K562-r cells at 10 uM preincubated with compound for 1 hrs followed by imatinib addition and measured after 2 hrs by UHPLC-SIM-MS analysis; type: functional, cell-based; details: time 3.0 hrs
[9] = Toxicity in female NOD/SCID mouse xenografted with human K562-r cells assessed as body weight loss at 10 mg/kg, po co-administered with imatinib once daily for 30 days; type: organism-based; details: in vivo, 720 h, time 30 day
K562-r [10] = test: Inhibition of STAT5 phosphorylation in human K562-r cells at 4 uM measured after 72 hrs by Western blotting based immunoassay; type: cell-based
K-562R [11] = test: Antitumor activity against human K562-r cells xenografted in female NOD/SCID mouse model assessed as reduction in tumor volume at 10 mg/kg, po co-administered with imatinib once daily and measured after 15 to 26 days; type: functional, organism-based; details: time 15-26 day
COS-7 = test: Cytotoxicity against African green monkey COS-7 cells assessed as reduction in metabolic activity at 10 uM incubated for 72 hrs by MTT assay; type: toxicity, cell-based; details: chlorocebus aethiops, cos-7, 72 h
K-562R [12] = test: Antitumor activity against human K562-r cells xenografted in female NOD/SCID mouse model assessed as reduction in tumor volume by measuring treatment to control ratio at 10 mg/kg, po co-administered with imatinib once daily and measured after 33 days relative to control; type: functional; details: time 33 day
PBMC [13] = test: Effect on colony formation in human PBMC derived from healthy donors at 10 uM measured after 2 weeks in presence of imatinib by inverted microscopic analysis; type: functional, cell-based
K-562R [14] = test: Antitumor activity against human K562-r cells xenografted in female NOD/SCID mouse model assessed as tumor growth inhibition at 10 mg/kg, po co-administered with imatinib once daily for 30 days; type: functional, organism-based; details: time 30.0 day
[15] = Toxicity in female NOD/SCID mouse xenografted with human K562-r cells assessed as body weight loss at 10 mg/kg, po administered once daily for 30 days; type: organism-based; details: in vivo, 720 h, time 30 day
A549 [16] = test: Inhibition of STAT5 phosphorylation in human A549 cells at 10 uM incubated for 72 hrs by Western blotting based immunoassay; type: cell-based
K-562R [17] = test: Cytotoxicity against human K562-r cells assessed as reduction in metabolic activity at 10 uM incubated for 72 hrs by MTT assay; type: functional, cell-based
A2780/Taxol [18] = test: Inhibition of side population phenotype in human Paclitaxel-resistant A2780 cells expressing ABCB1 at 10 uM incubated for 90 mins by DCV staining based flow cytometric analysis; type: functional, cell-based
A549 [19] = test: Effect on STAT5 protein expression in human A549 cells at 10 uM incubated for 72 hrs by Western blotting based immunoassay; type: functional, cell-based
MCF7 [20] = test: Effect on STAT5 protein expression in human MCF7 cells at 10 uM incubated for 72 hrs by Western blotting based immunoassay; type: functional, cell-based
[21] = test system: Docetaxel-resistant DU145 cell; test: Inhibition of side population phenotype in human Docetaxel-resistant DU145 cell expressing ABCB1 at 10 uM incubated for 90 mins by DCV staining based flow cytometric analysis; type: functional
[22] = Inhibition of side population phenotype in human K562-r cells at 10 uM incubated for 90 mins by DCV staining based flow cytometric analysis relative to control; type: functional; details: K-562R
MCF7 [23] = test: Inhibition of STAT5 phosphorylation in human MCF7 cells at 10 uM incubated for 72 hrs by Western blotting based immunoassay; type: cell-based
[24] = test system: Paclitaxel-resistant A2780; test: Inhibition of STAT5 phosphorylation in human Paclitaxel-resistant A2780 cells expressing ABCB1 at 10 uM incubated for 72 hrs by Western blotting based immunoassay; type: cell-based
[25] = test system: Paclitaxel-resistant IGROV-1 cell; test: Inhibition of side population phenotype in human Paclitaxel-resistant IGROV-1 cells expressing ABCB1 at 10 uM incubated for 90 mins by DCV staining based flow cytometric analysis; type: functional
[26] = test system: Docetaxel-resistant DU145 cell; test: Enhancement of docetaxel-induced anti-metabolic activity against human Docetaxel-resistant DU145 cell assessed as reduction in metabolic activity at 10 uM measured after 72 hrs by MTT assay; type: functional, cell-based
K-562R [27] = test: Antitumor activity against human K562-r cells xenografted in female NOD/SCID mouse model assessed as tumor growth inhibition at 10 mg/kg, po administered once daily for 30 days; type: functional, organism-based; details: time 30.0 day
A2780/Taxol [28] = test: Sensitization of paclitaxel-induced cytotoxicity against human Paclitaxel-resistant A2780 cells assessed as reduction in metabolic activity at 10 uM measured after 72 hrs by MTT assay; type: functional, cell-based
A2780/Taxol [29] = test: Effect on STAT5 protein expression in human Paclitaxel-resistant A2780 cells expressing ABCB1 at 10 uM incubated for 72 hrs by Western blotting based immunoassay; type: functional, cell-based
[30] = test system: Docetaxel-resistant PC-3 cell; test: Inhibition of side population phenotype in human Docetaxel-resistant PC-3 cell expressing ABCB1 at 10 uM incubated for 90 mins by DCV staining based flow cytometric analysis; type: functional
K562-r [31] = test: Effect on STAT5 phosphorylation in human K562-r cells at 4 uM measured after 6 hrs by Western blotting based immunoassay; type: cell-based
[32] = test system: Docetaxel-resistant PC-3 cell; test: Enhancement of docetaxel-induced anti-metabolic activity against human Docetaxel-resistant PC-3 cell assessed as reduction in metabolic activity at 10 uM measured after 72 hrs by MTT assay; type: functional, cell-based
[33] = Apparent permeability across apical to basolateral side in human Caco-2 cells at 10 uM by LC-MS/MS analysis
[34] = Apparent permeability across basolateral to apical side in human Caco-2 cells at 10 uM by LC-MS/MS analysis
K-562R [35] = test: Inhibition of side population phenotype in human K562-r cells at 0.1 to 10 uM incubated for 90 mins by DCV staining based flow cytometric analysis; type: functional, cell-based; details: dose 0.1-10 µM
[36] = test system: Paclitaxel-resistant IGROV-1 cell; test: Enhancement of paclitaxel-induced anti-metabolic activity in human Paclitaxel-resistant IGROV-1 cells assessed as reduction in metabolic activity upto 300 nM measured after 72 hrs by MTT assay; type: functional, cell-based
A2780/Taxol [37] = test: Cytotoxicity against human Paclitaxel-resistant A2780 cells assessed as metabolic activity at 10 nM measured after 72 hrs by MTT assay relative to control; type: functional

CCCc1nc2c(C)cc(-c3nc4ccccc4n3C)cc2n1Cc1ccc(-c2ccccc2C(N)=O)cc1
inhibition (PBMC [1]): Active
inhibition (MCF7 [2]): Active
Activity (K-562R [3]): inactive
Activity (PBMC [4]): inactive
inhibition (K562-r [5]): Active
inhibition [6]: Active
inhibition (A549 [7]): Active
Activity (K-562R [8]): Active
Activity [9]: Non-toxic
inhibition (K562-r [10]): Active; Lesser Effect Observed
Activity (K-562R [11]): Active
Activity (COS-7): Non-toxic
T/C (K-562R [12]): 36%
Activity (PBMC [13]): inactive
Activity (K-562R [14]): Active; Strongest Inhibition Observed
Activity [15]: Non-toxic
inhibition (A549 [16]): Active
Activity (K-562R [17]): inactive
inhibition (A2780/Taxol [18]): Active
Activity (A549 [19]): inactive
Activity (MCF7 [20]): inactive
inhibition [21]: Active
inhibition at 10 µM [22]: 100%
inhibition (MCF7 [23]): Active
inhibition [24]: Active
inhibition [25]: Active
Activity [26]: Active
Activity (K-562R [27]): Active
Activity (A2780/Taxol [28]): Active
Activity (A2780/Taxol [29]): inactive
inhibition [30]: Active
Activity (K562-r [31]): inactive
Activity [32]: Active

CCCc1nc2c(C)cc(-c3nc4ccccc4n3C)cc2n1Cc1ccc(-c2ccccc2C(=O)OC)cc1
inhibition (PBMC [1]): Active
inhibition (MCF7 [2]): Active
Activity (K-562R [3]): inactive
Activity (PBMC [4]): inactive
inhibition (K562-r [5]): Active
inhibition [6]: inactive
inhibition (A549 [7]): Active
Papp A→B at 10 µM [33]: 0.1 ×10⁻⁶ cm/s
Papp B→A at 10 µM [34]: 0.2 ×10⁻⁶ cm/s
Activity (K-562R [8]): Active
inhibition (K562-r [10]): Active; Lesser Effect Observed
Activity (COS-7): Non-toxic
Activity (PBMC [13]): inactive
inhibition (A549 [16]): Active
Activity (K-562R [17]): inactive
inhibition (A2780/Taxol [18]): Active
Activity (A549 [19]): inactive
Activity (MCF7 [20]): inactive
inhibition [21]: Active
inhibition at 10 µM [22]: 100%
inhibition (MCF7 [23]): Active
inhibition [24]: Active
inhibition [25]: Active
Activity [26]: Active
inhibition (K-562R [35]): Active; Similar To Valspodar
Activity (A2780/Taxol [28]): Active
Activity [36]: inactive
Activity (A2780/Taxol [29]): inactive
inhibition [30]: Active
Activity (K562-r [31]): inactive
Activity [32]: Active; Marginal Activity Observed

CC(=O)O[C@H]1C(=O)[C@@]2(C)[C@H]([C@H](OC(=O)c3ccccc3)[C@]3(O)C[C@H](OC(=O)[C@H](O)[C@@H](NC(=O)c4ccccc4)c4ccccc4)C(C)=C1C3(C)C)[C@]1(OC(C)=O)CO[C@@H]1C[C@@H]2O [PACLITAXEL]
Activity (A2780/Taxol [37]): >80%

From ChEMBL document CHEMBL6087448, “Eradication of Therapy-Resistant Cancer Stem Cells by Novel Telmisartan Derivatives” (J Med Chem, 2025)
